Data reported in ChEMBL document CHEMBL1127246, “1,2,5,6-tetrahydropyridine oxime ethers incorporating electron withdrawing groups are potent and selective muscarinic agonists” (Bioorg Med Chem Lett, 1994).
Each block holds one compound with its values, some of them ahead of it.

How the values were obtained:
[1] = target: Muscarinic acetylcholine receptor; assay: In vitro binding affinity against Muscarinic receptor in rat cerebral cortex using [3H]- oxotremorine-M (OXO-M) using as a radioligand; Value ranges from 120-180; assay type: tissue-based
[2] = target: Muscarinic acetylcholine receptor (Rattus norvegicus) (UniProt P08482+P08483+P08485+P08911+P10980); assay: Selectivity is the ratio of inhibitory activities against muscarinic receptors, determined using radioligand [3H]OXO-M and 3[H}-QND; assay type: protein assay
[3] = target: Muscarinic acetylcholine receptor; assay: In vitro binding affinity against Muscarinic receptor in rat cerebral cortex using [3H]- quinuclidinyl benzilate (QNB)using as a radioligand; Value ranges from 4700-6700; assay type: tissue-based
[4] = target: Muscarinic acetylcholine receptor; assay: In vitro binding affinity against Muscarinic receptor in rat cerebral cortex using [3H]- quinuclidinyl benzilate (QNB)using as a radioligand; Value ranges from 2100-2300; assay type: tissue-based
[5] = target: Muscarinic acetylcholine receptor; assay: In vitro binding affinity against Muscarinic receptor in rat cerebral cortex using [3H]- oxotremorine-M (OXO-M) using as a radioligand; assay type: tissue-based
[6] = Partition coefficient (logP); assay type: physicochemical; settings: octanol/water
[7] = pKa value was measured; assay type: physicochemical
[8] = target: Muscarinic acetylcholine receptor; assay: In vitro binding affinity against Muscarinic receptor in rat cerebral cortex using [3H]- oxotremorine-M (OXO-M) using as a radioligand; Value ranges from 65-260; assay type: tissue-based
[9] = target: Muscarinic acetylcholine receptor; assay: In vitro binding affinity against Muscarinic receptor in rat cerebral cortex using [3H]- quinuclidinyl benzilate (QNB)using as a radioligand; Value ranges from 9700-23000; assay type: tissue-based
Rattus norvegicus [10] = assay: Effective dose causing 50% decrease in mean blood pressure upon intravenous administration in rats; assay type: functional
Rattus norvegicus [11] = assay: Dose required to induce a standard increase in rhythmical slow wave activity (RSA) in rats when administered intravenously; assay type: functional
[12] = Ratio of compound in rat rhythmical slow wave activity assay vs efficacy causing 50% decrease in BP in rats; assay type: functional
[13] = target: Muscarinic acetylcholine receptor; assay: In vitro binding affinity against Muscarinic receptor in rat cerebral cortex using [3H]- quinuclidinyl benzilate (QNB)using as a radioligand; assay type: tissue-based
[14] = target: Muscarinic acetylcholine receptor; assay: In vitro binding affinity against Muscarinic receptor in rat cerebral cortex using [3H]- oxotremorine-M (OXO-M) using as a radioligand; Value ranges from 120-220; assay type: tissue-based
[15] = target: Muscarinic acetylcholine receptor; assay: In vitro binding affinity against Muscarinic receptor in rat cerebral cortex using [3H]- quinuclidinyl benzilate (QNB)using as a radioligand; Value ranges from 4300-9500; assay type: tissue-based
[16] = target: Muscarinic acetylcholine receptor; assay: In vitro binding affinity against Muscarinic receptor in rat cerebral cortex using [3H]- quinuclidinyl benzilate (QNB)using as a radioligand; Value ranges from 1200-1800; assay type: tissue-based
[17] = target: Muscarinic acetylcholine receptor; assay: In vitro binding affinity against Muscarinic receptor in rat cerebral cortex using [3H]- oxotremorine-M (OXO-M) using as a radioligand; Value ranges from 23-35; assay type: tissue-based
[18] = target: Muscarinic acetylcholine receptor; assay: In vitro binding affinity against Muscarinic receptor in rat cerebral cortex using [3H]- quinuclidinyl benzilate (QNB)using as a radioligand; Value ranges from 15000-15000; assay type: tissue-based
[19] = target: Muscarinic acetylcholine receptor; assay: In vitro binding affinity against Muscarinic receptor in rat cerebral cortex using [3H]- oxotremorine-M (OXO-M) using as a radioligand; Value ranges from 990-1300; assay type: tissue-based
[20] = target: Muscarinic acetylcholine receptor; assay: In vitro binding affinity against Muscarinic receptor in rat cerebral cortex using [3H]- quinuclidinyl benzilate (QNB)using as a radioligand; Value ranges from 18000-23000; assay type: tissue-based
[21] = target: Muscarinic acetylcholine receptor; assay: In vitro binding affinity against Muscarinic receptor in rat cerebral cortex using [3H]- oxotremorine-M (OXO-M) using as a radioligand; Value ranges from 46-110; assay type: tissue-based
[22] = target: Muscarinic acetylcholine receptor; assay: In vitro binding affinity against Muscarinic receptor in rat cerebral cortex using [3H]- oxotremorine-M (OXO-M) using as a radioligand; Value ranges from 840-1200; assay type: tissue-based
[23] = target: Muscarinic acetylcholine receptor; assay: In vitro binding affinity against Muscarinic receptor in rat cerebral cortex using [3H]- quinuclidinyl benzilate (QNB)using as a radioligand; Value ranges from 9100-9600; assay type: tissue-based
[24] = target: Muscarinic acetylcholine receptor; assay: In vitro binding affinity against Muscarinic receptor in rat cerebral cortex using [3H]- oxotremorine-M (OXO-M) using as a radioligand; Value ranges from 240-290; assay type: tissue-based
[25] = target: Muscarinic acetylcholine receptor; assay: In vitro binding affinity against Muscarinic receptor in rat cerebral cortex using [3H]- oxotremorine-M (OXO-M) using as a radioligand; Value ranges from 330-620; assay type: tissue-based
[26] = target: Muscarinic acetylcholine receptor; assay: In vitro binding affinity against Muscarinic receptor in rat cerebral cortex using [3H]- quinuclidinyl benzilate (QNB)using as a radioligand; Value ranges from 8000-8500; assay type: tissue-based
[27] = target: Muscarinic acetylcholine receptor; assay: In vitro binding affinity against Muscarinic receptor in rat cerebral cortex using [3H]- quinuclidinyl benzilate (QNB)using as a radioligand; Value ranges from 1500-7200; assay type: tissue-based
[28] = target: Muscarinic acetylcholine receptor; assay: In vitro binding affinity against Muscarinic receptor in rat cerebral cortex using [3H]- oxotremorine-M (OXO-M) using as a radioligand; Value ranges from 28-58; assay type: tissue-based
[29] = target: Muscarinic acetylcholine receptor; assay: In vitro binding affinity against Muscarinic receptor in rat cerebral cortex using [3H]- quinuclidinyl benzilate (QNB)using as a radioligand; Value ranges from 11000-17000; assay type: tissue-based
[30] = target: Muscarinic acetylcholine receptor; assay: In vitro binding affinity against Muscarinic receptor in rat cerebral cortex using [3H]- oxotremorine-M (OXO-M) using as a radioligand; Value ranges from 2300-3500; assay type: tissue-based

IC50 [1]: 0.15 µM | Ratio [2]: 37 | IC50 [3]: 5.6 µM
Compound: CO/N=C(\Cl)C1=CCCNC1

Compound: CO/N=C(\F)C1CN2CCC1CC2 (stereo not given)
IC50 [4]: 2.2 µM | Ratio [2]: 65

IC50 [5]: 11 µM
Compound: CO/N=C(\C1=CCCN(C)C1)C(F)(F)F

logP [6]: 1.45 | pKa [7]: 8.21 | IC50 [8]: 0.11 µM | IC50 [9]: 14 µM | Ratio [2]: 130
Compound: CO/N=C/C1=CCCN(C)C1 [MILAMELINE]
ED50 (Rattus norvegicus [10]): 0.15 mg/kg | ED Arec (Rattus norvegicus [11]): 0.15 mg/kg | Ratio [12]: 1

IC50 [5]: 0.041 µM | IC50 [13]: 2.9 µM | Ratio [2]: 70
Compound: CO/N=C(\F)C1=CCCNC1

logP [6]: 1.76 | pKa [7]: 7.65 | IC50 [14]: 0.15 µM | IC50 [15]: 4.5 µM | Ratio [2]: 30
Compound: CO/N=C(\C#N)C1=CCCN(C)C1
ED50 (Rattus norvegicus [10]): > 1 mg/kg | ED Arec (Rattus norvegicus [11]): 0.16 mg/kg | Ratio [12]: >6.3

Compound: CO/N=C(\Cl)C1CN2CCC1CC2 (stereo not given)
Ratio [2]: 16

Compound: CO/N=C(\C#N)C1CN2CCC1CC2 (stereo not given)
Ratio [12]: >10.8 | Ratio [2]: 14

logP [6]: 1.41 | pKa [7]: 8.6 | IC50 [16]: 1.5 µM | IC50 [17]: 0.028 µM | Ratio [2]: 54
Compound: CO/N=C(\C#N)C1=CCCNC1
ED50 (Rattus norvegicus [10]): > 0.32 mg/kg | ED Arec (Rattus norvegicus [11]): 0.032 mg/kg | Ratio [12]: >10

IC50 [18]: 15 µM | IC50 [19]: 1.1 µM | Ratio [2]: 14
Compound: CO/N=C(/C1=CCCN(C)C1)C(F)F

logP [6]: 1.01 | pKa [7]: 9.18 | IC50 [20]: 20 µM | IC50 [21]: 0.071 µM | Ratio [2]: 280
Compound: CO/N=C/C1=CCCNC1
ED50 (Rattus norvegicus [10]): 0.067 mg/kg | ED Arec (Rattus norvegicus [11]): 0.019 mg/kg | Ratio [12]: 3.5

IC50 [22]: 1 µM | IC50 [23]: 9.4 µM | Ratio [2]: 9
Compound: CCN1CCC=C(/C(C#N)=N/OC)C1

Compound: CO/N=C(\CF)C1=CCCNC1
IC50 [5]: 0.42 µM | IC50 [13]: 17 µM | Ratio [2]: 40

IC50 [13]: 2.8 µM | IC50 [24]: 0.26 µM | Ratio [2]: 11
Compound: CO/N=C(\Cl)C1=CCCN(C)C1

Compound: CO/N=C(\CF)C1=CCCN(C)C1
IC50 [25]: 0.45 µM | IC50 [26]: 8.3 µM | Ratio [2]: 18

logP [6]: 1.48 | pKa [7]: 7.39 | IC50 [27]: 4 µM | IC50 [28]: 0.039 µM | Ratio [2]: 100
Compound: CO/N=C(\F)C1=CCCN(C)C1
ED50 (Rattus norvegicus [10]): 0.04 mg/kg | ED Arec (Rattus norvegicus [11]): 0.054 mg/kg | Ratio [12]: 0.74

IC50 [29]: 13 µM | IC50 [30]: 2.8 µM | Ratio [2]: 5
Compound: CON=C(C1=CCCN(C)C1)C(F)(F)F
